Data taken from publication PMC12632267, “Staphylococcus aureus encodes four differentially regulated pyruvate transporters” (Journal of Bacteriology, 2025).

Columns and labels:
Test in all cases: […]-pyruvate uptake, filter assay, complemented triple mutant
Type in all cases: cell-based
Conditions in all cases: 0.5 mM 14C-pyruvate, TSBG, 37 °C; labelled compound
LrgAB = target: T1, LrgAB (Staphylococcus aureus, UniProt Q2FK07+Q2FK08)
T1 construct: gene lrgA; lrgAB operon, untagged; expressed from Pcad::lrgAB (pBK123) in S. aureus JE2 transporter mutants
T1 sequence (Q2FK07 whole entry): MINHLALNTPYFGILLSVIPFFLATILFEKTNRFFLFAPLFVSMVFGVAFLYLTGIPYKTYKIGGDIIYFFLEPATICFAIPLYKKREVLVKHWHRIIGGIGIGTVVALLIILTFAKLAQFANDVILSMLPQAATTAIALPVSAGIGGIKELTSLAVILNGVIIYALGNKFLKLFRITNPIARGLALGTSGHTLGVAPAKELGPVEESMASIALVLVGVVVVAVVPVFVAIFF
T1 sequence (Q2FK08 whole entry): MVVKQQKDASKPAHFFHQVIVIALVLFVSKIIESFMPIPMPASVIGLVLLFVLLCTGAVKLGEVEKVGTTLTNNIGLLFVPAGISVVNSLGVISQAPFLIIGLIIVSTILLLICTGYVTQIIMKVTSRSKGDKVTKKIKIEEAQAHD

LctP = target: T2, LctP (Staphylococcus aureus, UniProt A0A0H2XEN8)
T2 construct: full-length 530 aa, untagged; expressed from Pcad::lctP (pBK123) in S. aureus JE2 delta lrgAB/lctP/lldP
T2 sequence (A0A0H2XEN8 entry or part of it): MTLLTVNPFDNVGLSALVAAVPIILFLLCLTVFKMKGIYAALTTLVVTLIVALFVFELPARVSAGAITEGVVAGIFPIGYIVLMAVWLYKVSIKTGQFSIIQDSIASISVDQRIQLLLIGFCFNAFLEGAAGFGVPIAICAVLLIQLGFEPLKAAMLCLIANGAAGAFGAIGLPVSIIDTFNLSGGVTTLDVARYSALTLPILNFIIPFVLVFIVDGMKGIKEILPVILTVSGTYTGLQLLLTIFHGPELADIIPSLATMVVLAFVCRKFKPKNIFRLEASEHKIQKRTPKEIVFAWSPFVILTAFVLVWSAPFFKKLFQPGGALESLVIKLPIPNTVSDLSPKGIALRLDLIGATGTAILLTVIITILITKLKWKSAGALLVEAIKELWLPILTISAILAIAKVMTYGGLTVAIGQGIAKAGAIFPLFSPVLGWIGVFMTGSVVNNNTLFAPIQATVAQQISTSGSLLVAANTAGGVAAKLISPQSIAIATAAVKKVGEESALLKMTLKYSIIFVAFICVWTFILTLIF

LldP = target: T3, LldP (Staphylococcus aureus, UniProt A0A0H2XGA6)
T3 construct: gene SAUSA300_2313; full-length 532 aa, untagged; expressed from Pcad::lldP (pBK123) in S. aureus JE2 delta lrgAB/lctP/lldP
T3 sequence (A0A0H2XGA6 entry or part of it): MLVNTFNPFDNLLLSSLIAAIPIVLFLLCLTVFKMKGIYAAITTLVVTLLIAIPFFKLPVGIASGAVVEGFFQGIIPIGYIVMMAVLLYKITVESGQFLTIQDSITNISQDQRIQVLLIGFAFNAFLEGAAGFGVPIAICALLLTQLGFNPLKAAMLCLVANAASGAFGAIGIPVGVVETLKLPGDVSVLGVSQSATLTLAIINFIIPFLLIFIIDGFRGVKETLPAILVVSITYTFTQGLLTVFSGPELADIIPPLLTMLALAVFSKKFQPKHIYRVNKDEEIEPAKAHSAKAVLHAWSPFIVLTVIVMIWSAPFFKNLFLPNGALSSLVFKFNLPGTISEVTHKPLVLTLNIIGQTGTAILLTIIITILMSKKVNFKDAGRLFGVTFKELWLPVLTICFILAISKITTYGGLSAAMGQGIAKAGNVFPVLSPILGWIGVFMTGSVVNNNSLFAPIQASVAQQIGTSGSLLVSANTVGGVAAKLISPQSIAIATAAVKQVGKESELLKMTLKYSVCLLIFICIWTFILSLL

SMILES: CC(=O)C(=O)O [pyruvate]
- 14C-pyruvate uptake, filter assay, complemented triple mutant (LrgAB): lctP playing the most significant role under these conditions, followed by lldP, and then lrgAB
- 14C-pyruvate uptake, filter assay, complemented triple mutant (LctP): all three of the putative pyruvate transporters contribute to pyruvate import, with lctP playing
- 14C-pyruvate uptake, filter assay, complemented triple mutant (LldP): lctP playing the most significant role under these conditions, followed by lldP, and then lrgAB
